Target: GST-tagged truncated human mutant G2019S LRRK2 (Homo sapiens (Human), UniProt Q5S007, G2019S)
Experiment: LRRK2 G2019S Km ATP LanthaScreen assay
Assay type: biochemical
Details: G2019S LRRK2, 134 μM ATP (Km ATP), LRRKtide substrate
Experimental: Unless otherwise noted, all reactions are magnetically allowed to stir, diethyl ether used in the experiments described below is Fisher ACS certified material stabilized with BHT, and “concentrated” and/or “solvent removed under reduced pressure” means evaporating the solvent from a solution or mixture using a rotary evaporator or vacuum pump. Unless otherwise noted, flash chromatography is carried out on a Teledyne Isco (Lincoln, NE), Analogix (Burlington, WI), or Biotage (Stockholm, SWE) automated chromatography system using a commercially available cartridge as the column. Columns may be purchased from Teledyne Isco, Analogix, Biotage, Varian (Palo Alto, CA), or Supelco (Bellefonte, PA) and are usually filled with silica gel as the stationary phase. Reverse phase prep-HPLC conditions, where used, can be found at the end of each experimental section. Aqueous solutions were concentrated on a Genevac (Ipswich, ENG) or by freeze-drying/lyophilization. Unless otherwise noted, all LRRK2 pIC50 data presented in tables refers to the LRRK2 G2019S Km ATP LanthaScreen™ assay (Life Technologies Corp., Carlsbad, CA) that is described in the Biological Assay section.
The LRRK2 kinase activity reported herein as IC50 values was determined with LanthaScreen™ technology from Life Technologies Corporation (Carlsbad, CA) using GST-tagged truncated human mutant G2019S LRRK2 in the presence of the fluorescein-labeled peptide substrate LRRKtide, also from Life Technologies. The data presented for the […] depending on the specific conditions and reagents used. Assays were performed in the presence of 134 μM ATP (Km ATP). Upon completion, the assay was stopped and phosphorylated substrate detected with a terbium (Tb)-labeled anti-pERM antibody (cat. no. PV4898). The compound dose response was prepared by diluting a 10 mM stock of compound to a maximum concentration of 9.99 μM in 100% dimethylsulfoxide followed by custom fold serial dilution in dimethylsulfoxide nine times. Twenty nanoliters of each dilution was spotted via a Labcyte Echo onto a 384-well black-sided plate (Corning 3575) followed by 15 μl of a 1.25 nM enzyme solution in 1× assay buffer (50 mM Tris pH 8.5, 10 mM MgCl2, 0.01% Brij-35, 1 mM EGTA, 2 mM dithiothreitol, 0.05 mM sodium orthovanadate). Following a 15-minute incubation at room temperature, the kinase reaction was started with the addition of 5 μl of 400 nM fluorescein-labeled LRRKtide peptide substrate and 134 μM ATP solution in 1× assay buffer. The reaction was allowed to progress at ambient temperature for 90 minutes. The reaction was then stopped by the addition of 20 μl of TR-FRET Dilution Buffer (Life Technologies, Carlsbad, CA) containing 2 nM Tb-labeled anti-phospho LRRKtide antibody and 10 mM EDTA (Life Technologies, Carlsbad, CA). After an incubation of 1 h at room temperature, the plate was read on an EnVision multimode plate reader (Perkin Elmer, Waltham, MA) with an excitation wavelength of 337 nm (Laser) and a reading emission at both 520 and 495 nm. Compound IC50s were interpolated from nonlinear regression best fits of the log of the final compound concentration, plotted as a function of the 520/495-nm emission ratio using Activity base. Abase uses a 4 parameter (4P) logistic fit based on the Levenberg-Marquardt algorithm.

Sequence of GST-tagged truncated human mutant G2019S LRRK2 (Q5S007 970-2527 G2019S): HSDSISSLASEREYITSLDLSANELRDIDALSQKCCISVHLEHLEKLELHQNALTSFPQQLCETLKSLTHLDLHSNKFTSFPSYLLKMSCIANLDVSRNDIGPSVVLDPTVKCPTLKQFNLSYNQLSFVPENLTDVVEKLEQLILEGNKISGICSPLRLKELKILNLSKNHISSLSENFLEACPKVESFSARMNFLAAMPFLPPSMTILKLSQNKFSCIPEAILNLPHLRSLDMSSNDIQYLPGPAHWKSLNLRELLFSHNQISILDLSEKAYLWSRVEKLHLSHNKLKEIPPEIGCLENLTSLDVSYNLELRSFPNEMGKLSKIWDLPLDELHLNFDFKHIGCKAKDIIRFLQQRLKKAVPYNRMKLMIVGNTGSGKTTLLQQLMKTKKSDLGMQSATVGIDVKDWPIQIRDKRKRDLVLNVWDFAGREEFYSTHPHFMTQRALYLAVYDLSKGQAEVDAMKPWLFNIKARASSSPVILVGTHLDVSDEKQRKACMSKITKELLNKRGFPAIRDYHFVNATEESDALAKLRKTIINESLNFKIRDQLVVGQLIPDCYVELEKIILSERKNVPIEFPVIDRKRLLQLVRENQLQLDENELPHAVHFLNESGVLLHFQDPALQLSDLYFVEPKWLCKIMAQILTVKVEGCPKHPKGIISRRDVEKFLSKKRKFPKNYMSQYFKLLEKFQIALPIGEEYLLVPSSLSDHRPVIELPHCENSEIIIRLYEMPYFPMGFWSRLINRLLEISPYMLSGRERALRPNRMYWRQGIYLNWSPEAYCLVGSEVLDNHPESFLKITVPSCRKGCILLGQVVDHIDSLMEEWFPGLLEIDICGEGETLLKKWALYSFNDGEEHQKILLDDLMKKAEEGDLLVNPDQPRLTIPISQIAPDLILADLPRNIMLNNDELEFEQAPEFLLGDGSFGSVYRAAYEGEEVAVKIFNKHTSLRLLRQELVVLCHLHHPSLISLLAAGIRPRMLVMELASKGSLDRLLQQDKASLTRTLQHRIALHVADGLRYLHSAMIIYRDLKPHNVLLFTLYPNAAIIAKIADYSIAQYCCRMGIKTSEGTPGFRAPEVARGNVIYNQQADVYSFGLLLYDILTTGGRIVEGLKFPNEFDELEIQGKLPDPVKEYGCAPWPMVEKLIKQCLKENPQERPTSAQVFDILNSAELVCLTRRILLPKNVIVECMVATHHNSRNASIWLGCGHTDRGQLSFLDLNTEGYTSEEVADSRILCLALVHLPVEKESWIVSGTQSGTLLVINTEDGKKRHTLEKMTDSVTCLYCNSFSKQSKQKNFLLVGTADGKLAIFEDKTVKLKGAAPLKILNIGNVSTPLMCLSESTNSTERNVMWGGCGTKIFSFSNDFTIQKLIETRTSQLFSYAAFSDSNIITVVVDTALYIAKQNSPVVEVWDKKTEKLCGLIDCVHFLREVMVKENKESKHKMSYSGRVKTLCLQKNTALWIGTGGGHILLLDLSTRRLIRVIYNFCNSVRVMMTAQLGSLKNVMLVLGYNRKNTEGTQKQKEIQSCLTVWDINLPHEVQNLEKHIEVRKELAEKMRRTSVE

Row | SMILES | LRRK2 pIC50
1 | Cc1nn(C)c2c1OCC[C@H](C)Nc1nc(ncc1C(F)(F)F)N2 (mixture of isomers) [Ex-2.1, (R)- and (S)-1,3,7-trimethyl-10-(trifluoromethyl)-1,5,6,7,8,14-hexahydro-9,13-(azeno)pyrazolo[4,3-b][1]oxa[4,6,10]triazacyclotridecine] | 6.64
2 | Cc1nn(C)c2c1OCC[C@@H](C)Nc1nc(ncc1C(F)(F)F)N2 (mixture of isomers) [Ex-2.2, (R)- and (S)-1,3,7-trimethyl-10-(trifluoromethyl)-1,5,6,7,8,14-hexahydro-9,13-(azeno)pyrazolo[4,3-b][1]oxa[4,6,10]triazacyclotridecine] | 5.45
3 | Cc1nn(C2CCC2)c2c1OC[C@H]1CN(C3COCC3F)C[C@@H]1Nc1nc(ncc1C(F)(F)F)N2 (mixture of isomers) [Ex-3.1, (10aS,13aR)- and (10aR,13aS)-3-cyclobutyl-12-(4-fluorotetrahydrofuran-3-yl)-1-methyl-8-(trifluoromethyl)-3,4,10a,11,12,13,13a,14-octahydro-10H-5,9-(azeno)pyrazolo[4,3-b]pyrrolo[3,4-k][1]oxa[4,6,10]triazacyclotridecine] | >10.09
4 | Cc1nn(C2CCC2)c2c1OCCC(C)Nc1nc(ncc1C(F)(F)F)N2 (single isomer, unassigned) [Ex-2.6, (R)- or (S)-1-cyclobutyl-3,7-dimethyl-10-(trifluoromethyl)-1,5,6,7,8,14-hexahydro-9,13-(azeno)pyrazolo[4,3-b][1]oxa[4,6,10]triazacyclotridecine] | 9.17
5 | Cc1nn(C2CCC2)c2c1OCCC(C)Nc1nc(ncc1C(F)(F)F)N2 (single isomer, unassigned) [Ex-2.7, (R)- or (S)-1-cyclobutyl-3,7-dimethyl-10-(trifluoromethyl)-1,5,6,7,8,14-hexahydro-9,13-(azeno)pyrazolo[4,3-b][1]oxa[4,6,10]triazacyclotridecine] | 7.21
6 | Cc1nn(C(C)C)c2c1OCCC(C)Nc1nc(ncc1C(F)(F)F)N2 (single isomer, unassigned) [Ex-2.8, (R)- or (S)-1-isopropyl-3,7-dimethyl-10-(trifluoromethyl)-1,5,6,7,8,14-hexahydro-9,13-(azeno)pyrazolo[4,3-b][1]oxa[4,6,10]triazacyclotridecine] | 9.48
7 | Cc1nn(C(C)C)c2c1OCCC(C)Nc1nc(ncc1C(F)(F)F)N2 (single isomer, unassigned) [Ex-2.9, (R)- or (S)-1-isopropyl-3,7-dimethyl-10-(trifluoromethyl)-1,5,6,7,8,14-hexahydro-9,13-(azeno)pyrazolo[4,3-b][1]oxa[4,6,10]triazacyclotridecine] | 6.31
8 | Cc1nn(C)c2c1OCC1(CC1)C(C)Nc1nc(ncc1C(F)(F)F)N2 (single isomer, unassigned) [Ex-2.14, (R)- or (S)-1′,3′,7′-trimethyl-10′-(trifluoromethyl)-1′,7′,8',14′-tetrahydro-5′H-spiro[cyclopropane-1,6′-[9,13](azeno)pyrazolo[4,3-b][1]oxa[4,6,10]triazacyclotridecine]] | 6.73
9 | Cc1nn(C)c2c1OCC1(CC1)C(C)Nc1nc(ncc1C(F)(F)F)N2 (single isomer, unassigned) [Ex-2.15, (R)- or (S)-1′,3′,7′-trimethyl-10′-(trifluoromethyl)-1′,7′,8′,14′-tetrahydro-5′H-spiro[cyclopropane-1,6′-[9,13](azeno)pyrazolo[4,3-b][1]oxa[4,6,10]triazacyclotridecine]] | 7.44
10 | Cc1nn(C)c2c1OCC1(CNc3nc(ncc3C(F)(F)F)N2)CC12CCOCC2 (single isomer, unassigned) [Ex-2.16, (R)- or (S)-1″,3″-dimethyl-10″- (trifluoromethyl)-1″,2,3,5,6,7″,8″,14″. octahydro-5″H-dispiro[pyran-4,1′-cyclopropane-2′,6″- [9,13](azeno)pyrazolo[4,3-b][1]oxa[4,6,10]triazacyclotridecine]] | 7.93
11 | Cc1nn(C)c2c1OCC1(CNc3nc(ncc3C(F)(F)F)N2)CC12CCOCC2 (single isomer, unassigned) [Ex-2.17, (R)- or (S)-1″,3″-dimethyl-10″- (trifluoromethyl)-1″,2,3,5,6,7″,8″,14″- octahydro-5″H-dispiro[pyran-4,1′-cyclopropane-2′,6″- [9,13](azeno)pyrazolo[4,3-b][1]oxa[4,6,10]triazacyclotridecine]] | 8.42
12 | CC1CCOc2c(C3CC3)nn(C)c2Nc2ncc(C(F)(F)F)c(n2)N1 (single isomer, unassigned) [Ex-2.18, (R)- or (S)-3-cyclopropyl-1,7-dimethyl-10-(trifluoromethyl)-1,5,6,7,8,14-hexahydro-9,13-(azeno)pyrazolo[4,3-b][1]oxa[4,6,10]triazacyclotridecine] | 6.65
13 | CC1CCOc2c(C3CC3)nn(C)c2Nc2ncc(C(F)(F)F)c(n2)N1 (single isomer, unassigned) [Ex-2.19, (R)- or (S)-3-cyclopropyl-1,7-dimethyl-10-(trifluoromethyl)-1,5,6,7,8,14-hexahydro-9,13-(azeno)pyrazolo[4,3-b][1]oxa[4,6,10]triazacyclotridecine] | 8.78
14 | Cc1nn(C2CCC2)c2c1OC[C@H]1CC[C@H]1Nc1nc(ncc1C(F)(F)F)N2 (single isomer, unassigned) [Ex-2.22, (10aR,12aS)- or (10aS,12aR)-3-cyclobutyl-1-methyl-8-(trifluoromethyl)-3,4,10,10a,11,12,12a,13-octahydro-5,9-(azeno)cyclobuta[k]pyrazolo[4,3-b][1]oxa[4,6,10]triazacyclotridecine] | 5.76
15 | Cc1nn(C2CCC2)c2c1OC[C@H]1CC[C@H]1Nc1nc(ncc1C(F)(F)F)N2 (single isomer, unassigned) [Ex-2.23, (10aR,12aS)- or (10aS,12aR)-3-cyclobutyl-1-methyl-8-(trifluoromethyl)-3,4,10,10a,11,12,12a,13-octahydro-5,9-(azeno)cyclobuta[k]pyrazolo[4,3-b][1]oxa[4,6,10]triazacyclotridecine] | >10.09
16 | Cc1nn(C2CCC2)c2c1OC[C@H]1COC[C@@H]1Nc1nc(ncc1C(F)(F)F)N2 (single isomer, unassigned) [Ex-2.26, (10aS,13aS)- or (10aR,13aR)-3-cyclobutyl-1-methyl-8-(trifluoromethyl)-3,4,10a,11,13a, 14-hexahydro-10H,13H-5,9-(azeno)furo[3,4-k]pyrazolo[4,3-b][1]oxa[4,6,10]triazacyclotridecine] | 6.77
17 | Cc1nn(C2CCC2)c2c1OC[C@@H]1COC[C@H]1Nc1nc(ncc1C(F)(F)F)N2 (single isomer, unassigned) [Ex-2.27, (3aR,15aR)- or (3aS,15aS)-11-cyclobutyl-13-methyl-6-(trifluoromethyl)-2,3,3a,4,10,11,15,15a-octahydro-5,9-(azeno)furo[3,2-k]pyrazolo[4,3-b][1]oxa[4,6,10]triazacyclotridecine] | 6.47
18 | CC1CCOc2c(C(C)(C)C#N)nn(C3CCC3)c2Nc2ncc(C(F)(F)F)c(n2)N1 (single isomer, unassigned) [Ex-2.29, (R)- or (S)-butyl-7-methyl-10-(trifluoromethyl)-1,5,6,7,8,14-hexahydro-9,13-(azeno)pyrazolo[4,3-b][1]oxa[4,6,10]triazacyclotridecin-3-yl)-2-methylpropanenitrile] | 5.70

Same assay, conditions: G2019S LRRK2, 134 μM ATP (Km ATP), LRRKtide substrate; read-out: LRRK2 pIC50 (converted)

Row | SMILES | IC50 [nM]
19 | Cc1nn(C)c2c1OC[C@H]1COC[C@H]1Nc1nc(ncc1C(F)(F)F)N2 (single isomer, unassigned) [Ex-2.25, (10aS,13aR)- or (10aR,13aS)-1,3-dimethyl-8-(trifluoromethyl)-3,4,10a,11,13a,14-hexahydro-10H,13H-5,9-(azeno)furo[3,4-k]pyrazolo[4,3-b][1]oxa[4,6,10]triazacyclotridecine] | 28.2
